In PubChem BioAssay AID330 (DTP/NCI, 2004):
Several values for one entry are separate records, joined by “and”; a condition that tells them apart may be missing. Identical values can stand only once. Inconclusive results and toxic doses are left out. How the source made its calls: active means survival T/C of 150% or more; inactive means T/C below 125% in these data. Square brackets hold non-standard residues; d marks the D form. Peptide text beside a SMILES is read from it. ξ: configuration not given here. ξE = NC(CCC(=O)O)C(=O)O

Tested on: P388 leukemia ip, CD2F1 mice, survival T/C
Experiment: NCI In Vivo Anticancer Drug Screen. Data for tumor model P388 Leukemia (intraperitoneal) in CD2F1 (CDF1) mice
Conditions: endpoint: median survival time, higher = longer survival
How it was run: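 Mice carrying the transplanted tumor received test compound or vehicle. Survival was recorded in each group, and the value is the treated-group measurement divided by that of the vehicle-treated control group.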

[1] = dose: 100.0 mg/kg/injection, schedule: Q04DX003 (ip), vehicle: saline with Tween-80
[2] = dose: 400.0 mg/kg/injection, schedule: Q04DX003 (ip), vehicle: saline with Tween-80
[3] = dose: 50.0 mg/kg/injection, schedule: Q01DX005 (ip), vehicle: Klucel (hydroxypropylcellulose) (HPC)
[4] = dose: 100.0 mg/kg/injection, schedule: Q01DX005 (ip), vehicle: Klucel (hydroxypropylcellulose) (HPC)
[5] = dose: 200.0 mg/kg/injection, schedule: Q01DX005 (ip), vehicle: Klucel (hydroxypropylcellulose) (HPC)
[6] = dose: 50.0 mg/kg/injection, schedule: Q01DX005 (ip), vehicle: saline
[7] = dose: 100.0 mg/kg/injection, schedule: Q01DX005 (ip), vehicle: saline
[8] = dose: 200.0 mg/kg/injection, schedule: Q01DX005 (ip), vehicle: saline
[9] = dose: 50.0 mg/kg/injection, schedule: Q01DX009 (ip), vehicle: Klucel (hydroxypropylcellulose) (HPC)
[10] = dose: 200.0 mg/kg/injection, schedule: Q01DX009 (ip), vehicle: Klucel (hydroxypropylcellulose) (HPC)
[11] = dose: 100.0 mg/kg/injection, schedule: Q01DX009 (ip), vehicle: saline with Tween-80
[12] = dose: 200.0 mg/kg/injection, schedule: Q01DX009 (ip), vehicle: saline with Tween-80
[13] = dose: 200.0 mg/kg/injection, schedule: Q04DX003 (ip), vehicle: saline with Tween-80
[14] = dose: 60.0 mg/kg/injection, schedule: Q01DX005 (ip), vehicle: saline
[15] = dose: 120.0 mg/kg/injection, schedule: Q01DX005 (ip), vehicle: saline
[16] = dose: 240.0 mg/kg/injection, schedule: Q01DX005 (ip), vehicle: saline
[17] = dose: 50.0 mg/kg/injection, schedule: Q01DX009 (ip), vehicle: saline with Tween-80

Measured: T/C

NC(CSCCc1ccncc1)C(=O)O (stereo not given)
inactive: dose: 6.25 mg/kg/injection, schedule: Q01DX009 (ip), vehicle: saline 103 % of control | dose: 12.5 mg/kg/injection, schedule: Q01DX009 (ip), vehicle: saline 105 % of control | dose: 25.0 mg/kg/injection, schedule: Q01DX009 (ip), vehicle: saline 96 % of control

CC(C)(C)OC(=O)C(N)C(F)C(=O)OC(C)(C)C (stereo not given)
inactive: dose: 25.0 mg/kg/injection, schedule: Q04DX003 (ip), vehicle: saline with Tween-80 96 % of control | dose: 50.0 mg/kg/injection, schedule: Q04DX003 (ip), vehicle: saline with Tween-80 101 % of control | [1] 99 % of control and 104 % of control | [2] 97 % of control

O=C(NC(CCSSCCC(NC(=O)OCc1ccccc1)C(=O)O)C(=O)O)OCc1ccccc1 (stereo not given)
inactive: dose: 12.5 mg/kg/injection, schedule: Q01DX009 (ip), vehicle: other 98 % of control | dose: 25.0 mg/kg/injection, schedule: Q01DX009 (ip), vehicle: other 98 % of control | dose: 50.0 mg/kg/injection, schedule: Q01DX009 (ip), vehicle: other 101 % of control | dose: 100.0 mg/kg/injection, schedule: Q01DX009 (ip), vehicle: other 100 % of control | dose: 200.0 mg/kg/injection, schedule: Q01DX009 (ip), vehicle: other 103 % of control

COC(=O)C(C)NC(=O)C(CCSC)NC(=O)OC(C)(C)C (stereo not given)
inactive: dose: 25.0 mg/kg/injection, schedule: Q01DX005 (ip), vehicle: Klucel (hydroxypropylcellulose) (HPC) 98 % of control | [3] 100 % of control and 102 % of control | [4] 95 % of control | [5] 104 % of control

NCC(=O)NCC(=O)NC(CCC(=O)O)C(=O)O (stereo not drawn) (H-Gly-Gly-[ξE]-OH)
inactive: [6] 100 % of control | [7] 101 % of control | [8] 104 % of control

Cc1ccc(Cl)cc1N=Cc1cccs1
inactive: [9] 97 % of control | dose: 100.0 mg/kg/injection, schedule: Q01DX009 (ip), vehicle: Klucel (hydroxypropylcellulose) (HPC) 105 % of control | [10] 108 % of control

O=C1NC(=O)C(Cc2ccccc2)(Cc2ccccc2)C(=O)N1
inactive: [11] 90 % of control | [1] 110 % of control | [12] 95 % of control | [13] 100 % of control | dose: 400.0 mg/kg/injection, schedule: Q01DX009 (ip), vehicle: saline with Tween-80 95 % of control | [2] 110 % of control

N#CC(=NCCO)C1=C(O)c2ccccc2C1=O
inactive: dose: 60.0 mg/kg/injection, schedule: Q01DX005 (ip), vehicle: saline with Tween-80 107 % of control | dose: 120.0 mg/kg/injection, schedule: Q01DX005 (ip), vehicle: saline with Tween-80 97 % of control | dose: 240.0 mg/kg/injection, schedule: Q01DX005 (ip), vehicle: saline with Tween-80 95 % of control

O=C1CC2OC3C(C2O1)N(C(=O)OCc1ccccc1)C[C@H]3O (stereo not given in full)
inactive: [14] 106 % of control | [15] 98 % of control | [16] 105 % of control

O=C(O)c1ccc(O)c(C(=O)O)c1
inactive: [17] 94 % of control | [11] 94 % of control

COc1nc2c(ccn2C2OC(COC(C)=O)C(OC(C)=O)C(OC(C)=O)C2OC(C)=O)c(=O)[nH]1 (stereo not given)
inactive: dose: 100.0 mg/kg/injection, schedule: Q01DX001 (ip), vehicle: saline with Tween-80 104 % of control | dose: 200.0 mg/kg/injection, schedule: Q01DX001 (ip), vehicle: saline with Tween-80 100 % of control | dose: 400.0 mg/kg/injection, schedule: Q01DX001 (ip), vehicle: saline with Tween-80 100 % of control

CC(=O)c1ccc([N+](=O)[O-])cc1Cl
inactive: dose: 100.0 mg/kg/injection, schedule: Q04DX002 (ip), vehicle: saline with Tween-80 106 % of control | dose: 200.0 mg/kg/injection, schedule: Q04DX002 (ip), vehicle: saline with Tween-80 106 % of control | dose: 400.0 mg/kg/injection, schedule: Q04DX002 (ip), vehicle: saline with Tween-80 103 % of control

O=C(O)c1ccccc1SCCO
inactive: dose: 25.0 mg/kg/injection, schedule: Q01DX009 (ip), vehicle: Klucel (hydroxypropylcellulose) (HPC) 89 % of control | [9] 91 % of control | [10] 90 % of control

COc1cc(C)c(OC)c(C/C=C(\C)CC2=C(CC(C)(C)O)C(=O)[C@]3(C)CCC[C@]3(C)C2)c1
inactive: dose: 5.0 mg/kg/injection, schedule: Q01DX005 (ip), vehicle: saline with Tween-80 105 % of control | dose: 10.0 mg/kg/injection, schedule: Q01DX005 (ip), vehicle: saline with Tween-80 94 % of control | dose: 20.0 mg/kg/injection, schedule: Q01DX005 (ip), vehicle: saline with Tween-80 94 % of control

O=[N+]([O-])c1ccc(Sc2ccc(Cl)cc2)c2nonc12
inactive: dose: 6.25 mg/kg/injection, schedule: Q01DX009 (ip), vehicle: saline with Tween-80 105 % of control | dose: 12.5 mg/kg/injection, schedule: Q01DX009 (ip), vehicle: saline with Tween-80 101 % of control | dose: 25.0 mg/kg/injection, schedule: Q01DX009 (ip), vehicle: saline with Tween-80 93 % of control

Cc1ccc(S(=O)(=O)C(C#N)(Cc2c[nH]c3ccccc23)Cc2c[nH]c3ccccc23)cc1
inactive: [3] 107 % of control | [4] 101 % of control | [5] 98 % of control

COc1cccc(Oc2ccc(C)c[n+]2CC(C)=O)c1
inactive: dose: 25.0 mg/kg/injection, schedule: Q01DX005 (ip), vehicle: saline with Tween-80 100 % of control | dose: 50.0 mg/kg/injection, schedule: Q01DX005 (ip), vehicle: saline with Tween-80 105 % of control

Cc1cc(S(=O)(=O)c2ccccc2C(=O)O)nc2c1ccc1ccccc12
inactive: [3] 105 % of control | [4] 103 % of control | [5] 103 % of control

CC1=C(C(=O)N=C(N)C(Cl)(Cl)Cl)SCCO1
inactive: dose: 50.0 mg/kg/injection, schedule: Q01DX005 (ip), vehicle: distilled water + alcohol 108 % of control | dose: 100.0 mg/kg/injection, schedule: Q01DX005 (ip), vehicle: distilled water + alcohol 109 % of control | dose: 200.0 mg/kg/injection, schedule: Q01DX005 (ip), vehicle: distilled water + alcohol 117 % of control

Nc1ccc(OCCNS(=O)(=O)c2cccc(S(=O)(=O)F)c2)c(Cl)c1
inactive: dose: 37.5 mg/kg/injection, schedule: Q01DX001 (ip), vehicle: saline with Tween-80 95 % of control | dose: 75.0 mg/kg/injection, schedule: Q01DX001 (ip), vehicle: saline with Tween-80 95 % of control | dose: 150.0 mg/kg/injection, schedule: Q01DX001 (ip), vehicle: saline with Tween-80 90 % of control

CCN(CC)CCCN1CC2CC=CCC2C1 (stereo not given)
inactive: [6] 98 % of control | [7] 100 % of control | [8] 105 % of control

O=S(=O)(SC(S(=O)(=O)C12CC3CC(CC(C3)C1)C2)S(=O)(=O)C12CC3CC(CC(C3)C1)C2)C12CC3CC(CC(C3)C1)C2 (stereo not given)
inactive: [17] 95 % of control | [11] 105 % of control | [12] 95 % of control

CC1=C(c2ccccc2)OS(=O)(=O)NC1=O
inactive: dose: 25.0 mg/kg/injection, schedule: Q01DX009 (ip), vehicle: water 114 % of control | dose: 50.0 mg/kg/injection, schedule: Q01DX009 (ip), vehicle: water 104 % of control | dose: 100.0 mg/kg/injection, schedule: Q01DX009 (ip), vehicle: water 106 % of control | dose: 200.0 mg/kg/injection, schedule: Q01DX009 (ip), vehicle: water 103 % of control | dose: 400.0 mg/kg/injection, schedule: Q01DX009 (ip), vehicle: water 113 % of control

COc1cncn2nc(C)nc12
inactive: [14] 100 % of control | [15] 99 % of control | [16] 93 % of control

CC(=O)c1c[nH]cc1CO
inactive: [17] 107 % of control | [11] 100 % of control | [12] 98 % of control

CC(=O)Nc1ccc2c(c1)C(N)c1ccccc1-2 (stereo not given)
inactive: [1] 104 % of control | [13] 118 % of control

COC(=O)C1CP2(C)(C)N(C)C(=O)N2C1(c1ccccc1)c1ccccc1 (stereo not given)
inactive: [3] 102 % of control | [4] 102 % of control | [5] 112 % of control

N#CN=CN(Cc1ccccc1)Cc1ccccc1
inactive: [17] 101 % of control | [11] 96 % of control | [12] 93 % of control
